Experimental data from US4341766A, “Deactivation of antibiotic-hydrolyzing enzymes” (priority 1980, dated 1982).
Where two headings read alike, the source gives them in different places.

Assays:
[1] = target: T1, E. coli RTEM β-lactamase (Escherichia coli, UniProt P62593); assay: rate constant (kcat) of the corresponding N-acyl derivative of 6-aminopenicillanic acid as β-lactamase substrate; format: biochemical
T1 construct: mature periplasmic enzyme
Description: We believe the acyl-enzyme intermediates either deacylate (resulting in the undesirable restoration of the lactamase) or fragment (resulting in the desirable deactivation of the lactamase). […] This can be achieved by employing an N-acyl derivative of 6-aminopenicillanic acid sulfone in which the corresponding N-acyl derivative of 6-aminopenicillanic acid is a very poor substrate for β-lactamase. Since the rate constant (kcat) of an N-acyl derivative of 6-aminopenicillanic acid is a measure of its ability to act as a substrate, this constant provides the basis for defining the class of sulfones used in the invention.
Quinacillin sulfone's effectiveness is shown both by the low inactivation time, and by the low number of turnovers before inactivation (the low number of molecules of quinacillin sulfone needed to inactivate one β-lactamase molecule).

[2] = target: T1, E. coli RTEM β-lactamase; assay: in vitro treatment of E. coli RTEM β-lactamase (deactivation); format: biochemical; details: for turnovers before deactivation: number of molecules of compound needed to inactivate one β-lactamase molecule; for t1/2 for deactivation: in vitro, E. coli RTEM β-lactamase; for comparative efficacy as β-lactamase deactivating agent: in words, comparison of the four compounds of Table I

T1 sequence (P62593 24-286 limits assumed): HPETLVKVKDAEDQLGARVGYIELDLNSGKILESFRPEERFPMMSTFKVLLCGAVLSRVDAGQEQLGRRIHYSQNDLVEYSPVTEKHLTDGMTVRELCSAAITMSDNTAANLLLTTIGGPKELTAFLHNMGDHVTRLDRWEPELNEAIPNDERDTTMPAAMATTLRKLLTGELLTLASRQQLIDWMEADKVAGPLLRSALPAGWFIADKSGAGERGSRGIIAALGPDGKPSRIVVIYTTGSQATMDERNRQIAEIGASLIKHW

SMILES | kcat of corresponding N-acyl derivative of 6-aminopenicillanic acid [1] | turnovers before deactivation [2] | t1/2 for deactivation [2] | comparative efficacy as β-lactamase deactivating agent [2] | kcat of corresponding N-acyl derivative of 6-aminopenicillanic acid ([1]; value belongs to the parent (non-sulfone) penicillin corresponding to the listed sulfone, substrate capability for β-lactamase)
CC1(C)[C@H](C(=O)O)N2C(=O)C[C@H]2S1(=O)=O [CP-45, 899, 6-des-aminopenicillanic acid sulfone, reference compound] | 40 s⁻¹ | 4,500 |  |  | 
Cc1onc(-c2ccccc2Cl)c1C(=O)N[C@@H]1C(=O)N2[C@@H](C(=O)O)C(C)(C)S(=O)(=O)[C@H]12 [cloxacillin sulfone] |  | 17,000 | 1.5 min | effective deactivating agents, though less effective than quinacillin sulfone | 
COc1cccc(OC)c1C(=O)N[C@@H]1C(=O)N2[C@@H](C(=O)O)C(C)(C)S(=O)(=O)[C@H]12 [methicillin sulfone] |  | 22,500 | ~ 1 min | effective deactivating agents, though less effective than quinacillin sulfone | 
CC1(C)[C@H](C(=O)O)N2C(=O)[C@@H](NC(=O)c3nc4ccccc4nc3C(=O)O)[C@H]2S1(=O)=O [quinacillin sulfone] |  | 400 | ~ 1 min | most effective of the four compounds listed | 
CC1(C)S[C@@H]2[C@H](NC(=O)c3nc4ccccc4nc3C(=O)O)C(=O)N2[C@H]1C(=O)O [quinacillin] |  |  |  |  | lowest kcat value
